Test results: US20120288495A1, “THERAPEUTIC COMPOSITIONS AND METHODS” (BIOTHERA, INC., priority 2009, published 2012)

Assays:
[1] = tested on: neutrophils and monocytes; conditions: cited from earlier work
[2] = tested on: IL-1, TNF, and leukotrienes; conditions: cited from earlier work
[3] = tested on: HCT-116 colorectal carcinoma; assay: LIVE/DEAD cell mediated cytotoxicity assay: PBMC killing of KRAS-mutated tumor cells; type: cell-based, human
Experimental: The tumor target line HCT-116 colorectal carcinoma (American Type Culture Collection, Manassas, Va., ATCC No. CCL-247) was maintained in McCoy's 5A media supplemented with 10% fetal calf serum (Hyclone Laboratories, Inc., Logan, Utah).
Cytotoxicity was measured with the LIVE/DEAD Cell Mediated Cytotoxicity Kit (Invitrogen, Carlsbad, Calif.) according to manufacturer's instructions. Briefly, the HCT-116 target cells were stained with 1:80 dilution of DiOC18 in Phosphate Buffered Saline (PBS, Mediatech Inc. Manassas, Va.) and incubated at 37° C. for 30 minutes. The cells were then washed twice in PBS and resuspended at 2×10^6 cells/mL in complete media containing 10% human serum.
DiOC labeled target cells incubated with ERBITUX dilutions for 30 minutes at 37° C. In each well of a 96-well plate, 1.25×10^6 freshly isolated peripheral blood mononuclear cells (PBMC) along with IMPRIME-PGG dilution or 50 ng/ml IL-2 (R&D Systems, Minneapolis, Minn.) in of total volume of 100 μl media incubated at 37° C. for 30 minutes. 5×10^4 targets added to wells in 25 μl of media and assay incubated overnight at 37° C. Following incubation, target cell viability measured by staining with 125 μl of propidium iodide (PI) viability reagent diluted 1:5000 from stock solution provided in the assay kit. Cells incubated for 30 minutes at 37° C. before analysis on LSR II flow cytometer (BD Biosciences, San Jose, Calif.) to determine percentage of DiOC stained targets that intercalate the PI stain, indicating cell death.

[4] = Physicochemical properties of purified soluble β-glucan
Excerpt: The soluble β-glucan has an average molecular weight between about 120,000 Da and about 205,000 Da and a molecular weight distribution (polydispersity) of not more than 2.5 as determined by HR-GPC with multiple angle light scattering (HR-GPC/MALS) and differential refractive index detection. Powder X-ray diffraction and magic-angle spinning NMR determined that the product consists of polymeric chains associated into triple helices. The soluble β-glucan is typically uncharged and therefore has no pKa.

pKa [4]: has no pKa
solubility in water [4]: soluble in water independent of pH
Substance: poly-(1-6)-β-D-glucopyranosyl-(1-3)-β-D-glucopyranose [soluble β-glucan]
number of neutrophils and monocytes and their direct antitumor activity (phagocytosis and microbial killing) [1]: increase the number of neutrophils and monocytes as well as their direct antitumor activity
production of biochemical mediators (IL-1, TNF, leukotrienes) [2]: does not stimulate the production of biochemical mediators
ability of human PBMCs to kill KRAS-mutated tumor cells ([3]; FIG. 2, flow cytometry data, in vitro): enhances the ability of human peripheral blood mononuclear cells (PBMCs) to kill KRAS-mutated tumor cells in vitro
ability of human PBMCs to kill KRAS-mutated tumor cells ([3]; FIG. 3, in vitro, N=1, E:T=25:1): enhances the ability of human peripheral blood mononuclear cells (PBMCs) to kill KRAS-mutated tumor cells in vitro
antitumor activity in the presence of an EGF-r antagonist antibody ([3]; FIG. 4, with ERBITUX, N=1, E:T=25:1): exhibits greater antitumor activity in the presence of an EGF-r antagonist antibody
